Reference: the NIST ThermoML archive (doi:10.1021/acs.jced.9b00846)
± gives the expanded uncertainty stated by the source.

Conditions: Liquid, Vibrating tube method

CC(C)CC(C)C [2,4-dimethylpentane]
Conditions | mass density [kg/m3]
323.15 K, 25018 kPa | 673.5 ± 0.9
323.15 K, 29938 kPa | 677.9 ± 0.9
323.15 K, 35006 kPa | 682.2 ± 1
323.15 K, 39965 kPa | 686.1 ± 1
323.15 K, 45012 kPa | 690 ± 1
323.15 K, 49970 kPa | 693.6 ± 1.1
323.15 K, 54953 kPa | 697.1 ± 1.1
323.15 K, 59965 kPa | 700.4 ± 1.1
323.15 K, 65022 kPa | 703.7 ± 1.1
328.15 K, 98 kPa | 641 ± 0.8
328.15 K, 5010 kPa | 647.8 ± 0.8
328.15 K, 9934 kPa | 653.9 ± 0.8
328.15 K, 14950 kPa | 659.6 ± 0.9
328.15 K, 19968 kPa | 664.9 ± 0.9
328.15 K, 25011 kPa | 669.8 ± 0.9
328.15 K, 30040 kPa | 674.5 ± 0.9
328.15 K, 34952 kPa | 678.7 ± 1
328.15 K, 39959 kPa | 682.8 ± 1
328.15 K, 45017 kPa | 686.8 ± 1
328.15 K, 49935 kPa | 690.4 ± 1.1
328.15 K, 54941 kPa | 694 ± 1.1
328.15 K, 59962 kPa | 697.4 ± 1.1
328.15 K, 65006 kPa | 700.8 ± 1.1
333.15 K, 92 kPa | 636.3 ± 0.8
333.15 K, 4968 kPa | 643.3 ± 0.8
333.15 K, 9977 kPa | 649.8 ± 0.8
333.15 K, 15014 kPa | 655.7 ± 0.9
333.15 K, 19986 kPa | 661.1 ± 0.9
333.15 K, 25001 kPa | 666.2 ± 0.9
333.15 K, 29959 kPa | 670.9 ± 0.9
333.15 K, 34922 kPa | 675.3 ± 1
333.15 K, 39972 kPa | 679.5 ± 1
333.15 K, 45064 kPa | 683.6 ± 1
333.15 K, 50006 kPa | 687.3 ± 1.1
333.15 K, 54975 kPa | 691 ± 1.1
333.15 K, 59984 kPa | 694.5 ± 1.1
333.15 K, 64995 kPa | 697.8 ± 1.2
338.15 K, 107 kPa | 631.7 ± 0.8
338.15 K, 5007 kPa | 639.1 ± 0.8
338.15 K, 9978 kPa | 645.7 ± 0.8
338.15 K, 14968 kPa | 651.8 ± 0.9
338.15 K, 19968 kPa | 657.4 ± 0.9
338.15 K, 25042 kPa | 662.7 ± 0.9
338.15 K, 30018 kPa | 667.5 ± 0.9
338.15 K, 35052 kPa | 672.1 ± 1
338.15 K, 39990 kPa | 676.3 ± 1
338.15 K, 45087 kPa | 680.5 ± 1
338.15 K, 49968 kPa | 684.3 ± 1.1
338.15 K, 55044 kPa | 688.1 ± 1.1
338.15 K, 60031 kPa | 691.6 ± 1.1
338.15 K, 64997 kPa | 695 ± 1.2
343.15 K, 98 kPa | 626.8 ± 0.8
343.15 K, 4944 kPa | 634.4 ± 0.8
343.15 K, 10008 kPa | 641.5 ± 0.9
343.15 K, 14958 kPa | 647.7 ± 0.9
343.15 K, 19959 kPa | 653.5 ± 0.9
343.15 K, 25045 kPa | 658.9 ± 0.9
343.15 K, 30012 kPa | 663.9 ± 0.9
343.15 K, 34980 kPa | 668.5 ± 1
343.15 K, 40024 kPa | 672.9 ± 1
343.15 K, 44956 kPa | 677.1 ± 1
343.15 K, 50037 kPa | 681.1 ± 1.1
343.15 K, 55010 kPa | 684.9 ± 1.1
343.15 K, 59979 kPa | 688.5 ± 1.1
343.15 K, 65088 kPa | 692.1 ± 1.2
348.15 K, 103 kPa | 622 ± 0.8
348.15 K, 4998 kPa | 630 ± 0.8
348.15 K, 9948 kPa | 637.2 ± 0.9
348.15 K, 15016 kPa | 643.8 ± 0.9
348.15 K, 19991 kPa | 649.7 ± 0.9
348.15 K, 25051 kPa | 655.3 ± 0.9
348.15 K, 29994 kPa | 660.3 ± 1
348.15 K, 34970 kPa | 665.1 ± 1
348.15 K, 39979 kPa | 669.6 ± 1
348.15 K, 45063 kPa | 673.9 ± 1
348.15 K, 50024 kPa | 678 ± 1.1
348.15 K, 54974 kPa | 681.8 ± 1.1
348.15 K, 59994 kPa | 685.5 ± 1.1
353.15 K, 1014 kPa | 618.8 ± 0.8
353.15 K, 5010 kPa | 625.6 ± 0.8
353.15 K, 9950 kPa | 633 ± 0.9
353.15 K, 15037 kPa | 639.9 ± 0.9
353.15 K, 19996 kPa | 646 ± 0.9
353.15 K, 25024 kPa | 651.7 ± 0.9
353.15 K, 29983 kPa | 656.9 ± 1
353.15 K, 34950 kPa | 661.8 ± 1
353.15 K, 40060 kPa | 666.5 ± 1
353.15 K, 45017 kPa | 670.8 ± 1
353.15 K, 49987 kPa | 674.9 ± 1.1
353.15 K, 54976 kPa | 678.9 ± 1.1
353.15 K, 59989 kPa | 682.7 ± 1.1
358.15 K, 5026 kPa | 621 ± 0.8
358.15 K, 9954 kPa | 628.7 ± 0.9
358.15 K, 15017 kPa | 635.8 ± 0.9
358.15 K, 19926 kPa | 642 ± 0.9
358.15 K, 25014 kPa | 647.9 ± 0.9
358.15 K, 30045 kPa | 653.4 ± 1
358.15 K, 35004 kPa | 658.3 ± 1
358.15 K, 40013 kPa | 663.1 ± 1
358.15 K, 44988 kPa | 667.5 ± 1
358.15 K, 49996 kPa | 671.7 ± 1.1
358.15 K, 55037 kPa | 675.8 ± 1.1
358.15 K, 60020 kPa | 679.6 ± 1.1
358.15 K, 65016 kPa | 683.3 ± 1.2
363.15 K, 4947 kPa | 616.2 ± 0.8
363.15 K, 10031 kPa | 624.5 ± 0.9
363.15 K, 15019 kPa | 631.7 ± 0.9
363.15 K, 19970 kPa | 638.2 ± 0.9
363.15 K, 25122 kPa | 644.3 ± 0.9
363.15 K, 30059 kPa | 649.8 ± 1
363.15 K, 35064 kPa | 654.9 ± 1
363.15 K, 40055 kPa | 659.8 ± 1
363.15 K, 45078 kPa | 664.3 ± 1.1
363.15 K, 49933 kPa | 668.5 ± 1.1
363.15 K, 54989 kPa | 672.7 ± 1.1
363.15 K, 59992 kPa | 676.6 ± 1.2
363.15 K, 65058 kPa | 680.3 ± 1.2
